# Where two headings read alike, the source gives them in different places.
# Legend:
# H2030 = experiment: CellTiterGlo Cell Proliferation Assay, H2030; type: cell-based; details: Homo sapiens, NCI-H2030, KRas G12C, Lung, 96 hr
# Experimental: A panel of tumor cell lines harboring KRas G12C or other KRas mutations are collected (Table 6). All cell lines are from ATCC or other sources indicated.
# Typically cells are cultured in RPMI1640 or Dulbecco's modified Eagle's medium (DMEM, GIBCO) supplemented with 10% FBS (GIBCO, Invitrogen). For 2D culture cells (4×10^3/well) maintained in growth medium described above, are plated onto 96 well tissue culture plates Corning® Cat. 3603) a day before the treatment. For 3D culture 8000 cells/well are seeded onto 96 well ultra-low attachment tissue culture plates (Corning, #3474). The cells are treated compound for 96 hr, and then are analyzed for viability using the CellTiterGlo® Luminescent Cell Viability Assay® (Promega #G7572 for 2D and Promega #G9683 for 3D cultures) according to manufacturer's instructions and an EnVision™ plate reader. Nonlinear regression and sigmoidal dose-response curves are used to calculate the half maximal inhibitory concentration (IC50) with GraphPad Prism 4® software.
# [1] = tested on: pERK in H358 xenograft tumors; experiment: In vivo target inhibition/PD, H358 xenograft, pERK; parameters: species or system mouse; details: for inhibition at 10 mg/kg: 10 mg/kg single dose; for inhibition at 30 mg/kg: 30 mg/kg single dose
# Experimental: To evaluate in vivo target inhibition and anti-tumor efficacy of a compound, Human lung cancer cells, H358 or H2122 are implanted into nude mice xenograft tumor models. Either H358 or H2122 cells (10×10^6 in a 1:1 Matrigel® mix, 0.2 mL total volume) are implanted by subcutaneous injection in hind leg of nude female mice (Harlan Laboratories). A total of 5 mice each group are used for efficacy study, and a total of 3-4 mice each group are used for target engagement and PD study. Treatment is initiated with oral administration (gavage) of a test compound or vehicle (20% Captisol®, 25 mM phosphate, pH 2.0 in 0.2 mL volume when the tumor size reaches approximately […]. Tumor growth and body weight are monitored over time to evaluate efficacy and signs of toxicity. Bidimensional measurements of tumors are performed twice a week and tumor volumes are calculated based on mid-axis length and mid-axis width. Tumor volume data are transformed to a log scale to equalize variance across time and treatment groups. The log volume data are analyzed with a two-way repeated measures analysis of variance by time and treatment using the mixed procedures in SAS software (version 8.2). The correlation model for the repeated measures is spatial power. Treated groups are compared to the control group at each time point. The mixed procedure is also used separately for each treatment group to calculate adjusted means and standard errors at each time point. Both analyses account for the autocorrelation within each animal. The adjusted means and standard errors are plotted for each treatment group versus time.
# For in vivo target inhibition and PD analysis, tumors are ground by mortar and pestle on dry ice and tumor fragments are added to 800 μL of lysis buffer containing 1% Triton X100, 25 mM Tris pH 7.5, 150 mM NaCl, 1 mM EDTA, and 1 mM EGTA with Halt protease and phosphatase inhibitor cocktail (Thermo Scientific, cat. no. 1861281) in lysing matrix D tubes (MP Biomedical®, cat. no. 6913-500) with one additional large bead (MP Biomedical® ¼″ ceramic sphere bead cat. no. 6540-412) per tube. Tumor fragments are homogenized in a Thermo Bio101® fast prep (FP120) at setting 4 for […] while cold for a total of 2 times. Lysates are spun at 14,000 rpm for 10 min at 4° C. to clarify. Protein estimation is done on the lysate supernatant using a BioRad Dc® protein assay and lysates are diluted in complete lysis/binding buffer from the Ras GTPase Chemi ELISA Kit® (Active Motif, cat. no. 52097). The active KRas ELISA was performed as follows: Glutathione-coated ELISA wells were incubated with diluted RAF1-GST in complete lysis/binding buffer for 1 hr at 4° C. with gentle agitation. Wells are washed 3 times with wash buffer and 100 μg of lysates are added to each well and incubated at RT for 1 hr with mild agitation. The wells are washed an additional 3 times, then primary antibody, diluted in antibody binding buffer, is added to each well. The plates are incubated for 1 hr. The wells are washed 3 more times before adding HRP-conjugated secondary antibody, diluted in antibody binding buffer, to each well. The plates are incubated at RT for 1 hr. ELISA wells are washed 4 times, chemiluminescent reagents is added and then luminescence is read. For pERK Meso Scale Discovery ELISA, 25 μg of protein containing 0.1% SDS is used; for pMEK Meso Scale Discovery ELISA, 50 μg of protein without SDS is used. Meso Scale Discovery Whole Cell Lysate Kits for pERK and pMEK are provided by Meso Scale Discovery.
# The tumor samples are collected 4 hr post a single dose. The tumor lysates are prepared and the inhibition of pERK, pMEK, and active KRas is measured as described above.
# After a single dose, the tumor samples are harvested at 2, 4, 8, 12 and 24 hr post doing. The tumor lysates are prepared and the inhibition of pERK, pMEK, and active KRas is measured as described above.
# [2] = Mus musculus, NCI-H358, 2 h, H358 xenograft, time course, 2 hr, read-out: % Inhibition pERK
# [3] = Mus musculus, NCI-H358, 4 h, H358 xenograft, time course, 4 hr, read-out: % Inhibition pERK
# [4] = Mus musculus, NCI-H358, 4 h, H358 xenograft, 4 hr post dose, read-out: % Inhibition pERK
# [5] = Mus musculus, NCI-H358, 8 h, H358 xenograft, time course, 8 hr, read-out: % Inhibition pERK
# [6] = Mus musculus, NCI-H358, 12 h, H358 xenograft, time course, 12 hr, read-out: % Inhibition pERK
# [7] = Mus musculus, NCI-H358, 24 h, H358 xenograft, time course, 24 hr, read-out: % Inhibition pERK
smiles,measurement,setting,value
"C=CC(=O)N1CCN(c2ncnc3c(F)c(-c4ccc(F)c5sc(N)nc45)c(Cl)cc23)CC1 [Example 1, 1-{4-[7-(2-Amino-7-fluoro-1,3-benzothiazol-4-yl)-6-chloro-8-fluoroquinazolin-4-yl]piperazin-1-yl}prop-2-en-1-one]",IC50,H2030; read-out: IC50 (μM) in 2 D cell proliferation,6.88 µM
same,IC50,H2030; read-out: IC50 (μM) in 3 D spheroid cell proliferation,0.003 µM
same,"dose to achieve 50% target inhibition (TED50), pERK","[1]; H358 xenograft, single dose, 4 hr",9.78 mg/kg
same,inhibition at 10 mg/kg,[1]; [2],61.7%
same,inhibition at 30 mg/kg,[1]; [2],83.1%
same,inhibition at 10 mg/kg,[1]; [3],73.5%
same,inhibition at 30 mg/kg,[1]; [3],87.3%
same,inhibition at 1 mg/kg,"[1]; Mus musculus, NCI-H358, 4 h, H358 xenograft, 1 mg/kg single dose, 4 hr post dose",5.5%
same,inhibition at 3 mg/kg,"[1]; Mus musculus, NCI-H358, 4 h, H358 xenograft, 3 mg/kg single dose, 4 hr post dose",16.4%
same,inhibition at 10 mg/kg,[1]; [4],47.8%
same,inhibition at 30 mg/kg,[1]; [4],84.2%
same,inhibition at 100 mg/kg,"[1]; Mus musculus, NCI-H358, 4 h, H358 xenograft, 100 mg/kg single dose, 4 hr post dose",83.5%
same,inhibition at 10 mg/kg,[1]; [5],69.2%
same,inhibition at 30 mg/kg,[1]; [5],86.5%
same,inhibition at 10 mg/kg,[1]; [6],83%
same,inhibition at 30 mg/kg,[1]; [6],77.4%
same,inhibition at 10 mg/kg,[1]; [7],45%
same,inhibition at 30 mg/kg,[1]; [7],63.4%
same,inhibition at 10 mg/kg,"[1]; Mus musculus, NCI-H358, H358 xenograft, from 2-12 hr, read-out: pERK inhibition",61 to 83%
same,inhibition at 30 mg/kg,"[1]; Mus musculus, NCI-H358, H358 xenograft, from 2-24 hr, read-out: pERK inhibition",63 to 87%
same,EC50,"[1]; Mus musculus, NCI-H358, H358 xenograft, plasma exposure by mass spectrum, read-out: plasma concentration to achieve 50% target inhibition (TEC50), pERK",0.474 µM
